# In patent publication US11173151B2, “Substituted triazole derivatives and uses thereof” (BAYER AKTIENGESELLSCHAFT, priority 2017, dated 2021):
# Tests used:
# human V1a receptor = molecular target: T1, human V1a receptor (Homo sapiens, UniProt P37288); experiment: Cellular in vitro assay for determining vasopressin receptor activity, V1a receptor cell line (CHO, aequorin luminescence); format: cell-based; conditions: for IC50: CHO cell line transfected with human V1a receptor, [Arg]-vasopressin at EC50 concentration, read-out: IC50 hV1a; for ratio IC50 hV2/hV1a: selectivity ratio IC50 hV2 / IC50 hV1a
# T1 construct: expressed in transfected cells; host or cells: CHO K1 (ATCC), also stably transfected with a modified aequorin
# In short: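 Antagonism is measured in stable CHO K1 transfectants coexpressing the Gαq-coupled receptor and a calcium-sensitive aequorin photoprotein. Agonist challenge uses [Arg]-vasopressin at EC50 after a 10-minute compound exposure; IC50 values come from the luminescence signal.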
# human V2 receptor = molecular target: T2, human V2 receptor (Homo sapiens, UniProt P30518); experiment: Cellular in vitro assay for determining vasopressin receptor activity, V2 receptor cell line (CHO, CRE-luciferase); format: cell-based; conditions: CHO cell line transfected with human V2 receptor; [Arg8]-vasopressin at EC50 concentration; read-out: IC50 hV2
# T2 construct: expressed in transfected cells; host or cells: CHO K1 (ATCC) expressing firefly luciferase under a CRE-responsive promoter
# T2 sequence (P30518 whole entry): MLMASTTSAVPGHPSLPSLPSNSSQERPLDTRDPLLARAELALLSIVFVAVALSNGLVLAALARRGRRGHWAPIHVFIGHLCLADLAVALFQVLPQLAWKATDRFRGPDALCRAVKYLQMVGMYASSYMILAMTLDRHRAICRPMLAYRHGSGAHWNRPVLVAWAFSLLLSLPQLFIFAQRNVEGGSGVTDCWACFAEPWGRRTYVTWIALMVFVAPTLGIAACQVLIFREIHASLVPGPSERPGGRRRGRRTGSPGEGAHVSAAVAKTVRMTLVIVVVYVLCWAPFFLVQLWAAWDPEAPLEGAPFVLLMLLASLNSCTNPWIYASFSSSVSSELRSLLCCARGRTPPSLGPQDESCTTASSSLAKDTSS
# T1 sequence (P37288 whole entry): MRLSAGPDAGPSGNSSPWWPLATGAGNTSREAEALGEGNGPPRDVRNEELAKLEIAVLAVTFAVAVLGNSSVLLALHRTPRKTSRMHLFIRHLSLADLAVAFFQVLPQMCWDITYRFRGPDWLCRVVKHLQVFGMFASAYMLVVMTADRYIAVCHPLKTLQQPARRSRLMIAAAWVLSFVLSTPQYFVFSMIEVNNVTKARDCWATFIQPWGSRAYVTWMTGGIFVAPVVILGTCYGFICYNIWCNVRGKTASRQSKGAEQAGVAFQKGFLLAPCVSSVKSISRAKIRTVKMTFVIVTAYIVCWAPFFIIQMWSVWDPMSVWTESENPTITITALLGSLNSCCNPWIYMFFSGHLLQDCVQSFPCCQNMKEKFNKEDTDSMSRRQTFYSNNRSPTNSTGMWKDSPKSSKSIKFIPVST
Compound,IC50 (human V1a receptor),ratio IC50 hV2/hV1a (human V1a receptor),IC50 (human V2 receptor)
"O=C(c1cccc(Cl)c1-n1cnc(Cn2nc(-c3ccc(Cl)cc3)n(C[C@@H](O)C(F)(F)F)c2=O)n1)N1CCC[C@@H]1C(F)(F)F [Example 404, 5-(4-Chlorophenyl)-2-{[1-(2-chloro-6-{[(2R)-2-(trifluoromethyl)pyrrolidin-1-yl]carbonyl}phenyl)-1H-1,2,4-triazol-3-yl]methyl}-4-[(2R)-3,3,3-trifluoro-2-hydroxypropyl]-2,4-dihydro-3H-1,2,4-triazol-3-one]",315 nM,36.5,11500 nM
"CC1(NC(=O)c2cccc(Cl)c2-n2cnc(Cn3nc(-c4ccc(Cl)cc4)n(C[C@@H](O)C(F)(F)F)c3=O)n2)CC1 [Example 405, 3-Chloro-2-[3-({3-(4-chlorophenyl)-5-oxo-4-[(2R)-3,3,3-trifluoro-2-hydroxypropyl]-4,5-dihydro-1H-1,2,4-triazol-1-yl}methyl)-1H-1,2,4-triazol-1-yl]-N-(1-methylcyclopropyl)benzamide]",16.5 nM,615.2,10100 nM
"NC(=O)[C@H]1CC(F)(F)CN1C(=O)c1cccc(Cl)c1-n1cnc(Cn2nc(-c3ccc(Cl)cc3)n(C[C@@H](O)C(F)(F)F)c2=O)n1 [Example 409, 1-{3-Chloro-2-[3-({3-(4-chlorophenyl)-5-oxo-4-[(2R)-3,3,3-trifluoro-2-hydroxypropyl]-4,5-dihydro-1H-1,2,4-triazol-1-yl}methyl)-1H-1,2,4-triazol-1-yl]benzoyl}-4,4-difluoro-D-prolinamide]",180 nM,177.8,32000 nM
"O=C(NCCC(F)(F)F)c1cccc(Cl)c1-n1cnc(Cn2nc(-c3ccc(Cl)cc3)n(C[C@@H](O)C(F)(F)F)c2=O)n1 [Example 410, 3-Chloro-2-[3-({3-(4-chlorophenyl)-5-oxo-4-[(2R)-3,3,3-trifluoro-2-hydroxypropyl]-4,5-dihydro-1H-1,2,4-triazol-1-yl}methyl)-1H-1,2,4-triazol-1-yl]-N-(3,3,3-trifluoropropyl)benzamide]",325 nM,10.2,3300 nM
"O=C(c1cccc(Cl)c1-n1cnc(Cn2nc(-c3ccc(Cl)cc3)n(C[C@H](O)C(F)(F)F)c2=O)n1)N1CC2(COC2)C1 [Example 411, 2-({1-[2-Chloro-6-(2-oxa-6-azaspiro[3.3]hept-6-ylcarbonyl)phenyl]-1H-1,2,4-triazol-3-yl}methyl)-5-(4-chlorophenyl)-4-[(2S)-3,3,3-trifluoro-2-hydroxypropyl]-2,4-dihydro-3H-1,2,4-triazol-3-one]",365 nM,13.3,4850 nM
"O=C(NC1CC1)c1cccc(C(F)(F)F)c1-n1cnc(Cn2nc(-c3ccc(Cl)cc3)n(C[C@H](O)C(F)(F)F)c2=O)n1 [Example 415, 2-[3-({3-(4-Chlorophenyl)-5-oxo-4-[(2S)-3,3,3-trifluoro-2-hydroxypropyl]-4,5-dihydro-1H-1,2,4-triazol-1-yl}methyl)-1H-1,2,4-triazol-1-yl]-N-cyclopropyl-3-(trifluoromethyl)benzamide]",53.5 nM,28.0,1500 nM
"O=C(NC1CC(F)(F)C1)c1cccc(C(F)(F)F)c1-n1cnc(Cn2nc(-c3ccc(Cl)cc3)n(C[C@H](O)C(F)(F)F)c2=O)n1 [Example 417, 2-[3-({3-(4-Chlorophenyl)-5-oxo-4-[(2S)-3,3,3-trifluoro-2-hydroxypropyl]-4,5-dihydro-1H-1,2,4-triazol-1-yl}methyl)-1H-1,2,4-triazol-1-yl]-N-(3,3-difluorocyclobutyl)-3-(trifluoromethyl)benzamide]",37.5 nM,8.4,315 nM
"O=C(NCC1CC1)c1cccc(C(F)(F)F)c1-n1cnc(Cn2nc(-c3ccc(Cl)cc3)n(C[C@H](O)C(F)(F)F)c2=O)n1 [Example 419, 2-[3-({3-(4-Chlorophenyl)-5-oxo-4-[(2S)-3,3,3-trifluoro-2-hydroxypropyl]-4,5-dihydro-1H-1,2,4-triazol-1-yl}methyl)-1H-1,2,4-triazol-1-yl]-N-(cyclopropylmethyl)-3-(trifluoromethyl)benzamide]",96 nM,10.7,1020 nM
"O=C(NCCC(F)(F)F)c1cccc(C(F)(F)F)c1-n1cnc(Cn2nc(-c3ccc(Cl)cc3)n(C[C@H](O)C(F)(F)F)c2=O)n1 [Example 421, 2-[3-({3-(4-Chlorophenyl)-5-oxo-4-[(2S)-3,3,3-trifluoro-2-hydroxypropyl]-4,5-dihydro-1H-1,2,4-triazol-1-yl}methyl)-1H-1,2,4-triazol-1-yl]-3-(trifluoromethyl)-N-(3,3,3-trifluoropropyl)benzamide]",22 nM,16.8,370 nM

# The remaining compounds from weak to strong by IC50 (human V1a receptor), led by results:
IC50 (human V1a receptor),ratio IC50 hV2/hV1a (human V1a receptor),IC50 (human V2 receptor),Compound
635 nM,50.4,32000 nM,"O=C(c1cccc(C(F)(F)F)c1-n1cnc(Cn2nc(-c3ccc(Cl)cc3)n(C[C@H](O)C(F)(F)F)c2=O)n1)N1CCS(=O)(=O)CC1 [Example 418, 5-(4-Chlorophenyl)-2-[(1-{2-[(1,1-dioxidothiomorpholin-4-yl)carbonyl]-6-(trifluoromethyl)phenyl}-1H-1,2,4-triazol-3-yl)methyl]-4-[(2S)-3,3,3-trifluoro-2-hydroxypropyl]-2,4-dihydro-3H-1,2,4-triazol-3-one]"
425 nM,75.3,32000 nM,"CC1(C)COCCN1C(=O)c1cccc(Cl)c1-n1cnc(Cn2nc(-c3ccc(Cl)cc3)n(C[C@@H](O)C(F)(F)F)c2=O)n1 [Example 407, 2-[(1-{2-Chloro-6-[(3,3-dimethylmorpholin-4-yl)carbonyl]phenyl}-1H-1,2,4-triazol-3-yl)methyl]-5-(4-chlorophenyl)-4-[(2R)-3,3,3-trifluoro-2-hydroxypropyl]-2,4-dihydro-3H-1,2,4-triazol-3-one]"
140 nM,14.3,2000 nM,"O=C(NCC(F)(F)F)c1cccc(C(F)(F)F)c1-n1cnc(Cn2nc(-c3ccc(Cl)cc3)n(C[C@H](O)C(F)(F)F)c2=O)n1 [Example 412, 2-[3-({3-(4-Chlorophenyl)-5-oxo-4-[(2S)-3,3,3-trifluoro-2-hydroxypropyl]-4,5-dihydro-1H-1,2,4-triazol-1-yl}methyl)-1H-1,2,4-triazol-1-yl]-N-(2,2,2-trifluoroethyl)-3-(trifluoromethyl)benzamide]"
51.5 nM,113.6,5850 nM,"COC[C@H]1CCCN1C(=O)c1cccc(C(F)(F)F)c1-n1cnc(Cn2nc(-c3ccc(Cl)cc3)n(C[C@H](O)C(F)(F)F)c2=O)n1 [Example 416, 5-(4-Chlorophenyl)-2-({1-[2-{[(2R)-2-(methoxymethyl)pyrrolidin-1-yl]carbonyl}-6-(trifluoromethyl)phenyl]-1H-1,2,4-triazol-3-yl}methyl)-4-[(2S)-3,3,3-trifluoro-2-hydroxypropyl]-2,4-dihydro-3H-1,2,4-triazol-3-one]"
44.5 nM,80.9,3600 nM,"CC1(NC(=O)c2cccc(C(F)(F)F)c2-n2cnc(Cn3nc(-c4ccc(Cl)cc4)n(C[C@H](O)C(F)(F)F)c3=O)n2)CC1 [Example 414, 2-[3-({3-(4-Chlorophenyl)-5-oxo-4-[(2S)-3,3,3-trifluoro-2-hydroxypropyl]-4,5-dihydro-1H-1,2,4-triazol-1-yl}methyl)-1H-1,2,4-triazol-1-yl]-N-(1-methylcyclopropyl)-3-(trifluoromethyl)benzamide]"
